# Data: ChEMBL document CHEMBL4417631, “Oral peptide inhibitors of interleukin-23 receptor and their use to treat inflammatory bowel diseases” (2017)
# Where a SMILES comes first, the peptide text is derived from it.
# Biological target: T1, Interleukin-23 receptor (Homo sapiens, UniProt Q5VWK5)
# T1 sequence (Q5VWK5 whole entry): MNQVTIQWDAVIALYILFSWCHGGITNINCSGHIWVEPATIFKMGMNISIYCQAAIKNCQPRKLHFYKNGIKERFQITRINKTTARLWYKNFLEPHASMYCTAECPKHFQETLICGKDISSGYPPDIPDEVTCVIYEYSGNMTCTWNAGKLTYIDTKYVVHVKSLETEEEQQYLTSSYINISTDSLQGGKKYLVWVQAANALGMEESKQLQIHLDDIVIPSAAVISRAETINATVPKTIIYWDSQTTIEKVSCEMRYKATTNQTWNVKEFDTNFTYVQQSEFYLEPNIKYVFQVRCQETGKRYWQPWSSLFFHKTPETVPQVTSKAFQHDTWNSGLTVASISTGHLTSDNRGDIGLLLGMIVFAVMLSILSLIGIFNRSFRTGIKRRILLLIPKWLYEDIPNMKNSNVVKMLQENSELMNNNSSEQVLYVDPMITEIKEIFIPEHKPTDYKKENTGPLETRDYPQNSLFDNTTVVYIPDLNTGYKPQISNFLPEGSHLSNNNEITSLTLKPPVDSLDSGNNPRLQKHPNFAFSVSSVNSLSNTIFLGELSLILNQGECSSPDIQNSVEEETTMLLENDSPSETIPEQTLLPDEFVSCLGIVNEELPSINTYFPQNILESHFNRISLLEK
# Assay: Inhibition of interleukin-23 binding to human interleukin-23 receptor incubated for 2 hrs by competitive binding ELISA
row,Molecule,IC50 [nM]
1,CC(=O)N[C@@H](CS)C(=O)N[C@@H](C)C(=O)N[C@@H](CC(=O)O)C(=O)N[C@@H](Cc1c[nH]c2ccccc12)C(=O)N[C@H](C(=O)N[C@@H](CS)C(=O)N[C@@H](Cc1ccc(O)cc1)C(=O)N[C@@H](Cc1cccc2ccccc12)C(=O)N(C)[C@@H](Cc1cnc[nH]1)C(=O)N[C@H](C)C(=O)N[C@@H](Cc1ccccc1)C(=O)NC(C)(C)C(N)=O)C(C)C,> 1000
2,CC(=O)N[C@@H](CS)C(=O)N[C@@H](CCC(N)=O)C(=O)N[C@H](C(=O)N[C@@H](Cc1c[nH]c2ccccc12)C(=O)N[C@@H](CCC(N)=O)C(=O)N[C@@H](CS)C(=O)N[C@@H](Cc1ccc(O)cc1)C(=O)N[C@@H](Cc1c[nH]c2ccccc12)C(=O)N[C@@H](CCCNC(=N)N)C(=O)N(C)[C@@H](CCCCN)C(=O)N[C@@H](CC(N)=O)C(=O)NCC(=O)NCCOCC(=O)N[C@H](CCCCN)C(N)=O)[C@@H](C)O,> 1000
3,CC(=O)N[C@@H](CS)C(=O)N[C@@H](CCC(N)=O)C(=O)N[C@H](C(=O)N[C@@H](Cc1c[nH]c2ccccc12)C(=O)N[C@@H](CCC(N)=O)C(=O)N[C@@H](CS)C(=O)N[C@@H](Cc1ccc(O)cc1)C(=O)N[C@@H](Cc1c[nH]c2ccccc12)C(=O)N[C@H](CCCNC(=N)N)C(=O)N[C@@H](CCC(=O)O)C(=O)N[C@@H](CC(N)=O)C(=O)NCC(=O)NCCOCC(=O)N[C@H](CCCCN)C(N)=O)[C@@H](C)O,> 1000
4,CC(=O)N[C@@H](CS)C(=O)N[C@@H](C)C(=O)N[C@@H](CC(=O)O)C(=O)N[C@@H](Cc1c[nH]c2ccccc12)C(=O)N[C@H](C(=O)N[C@@H](CS)C(=O)N[C@@H](Cc1ccc(O)cc1)C(=O)N[C@@H](Cc1c[nH]c2ccccc12)C(=O)N[C@@H](Cc1cnc[nH]1)C(=O)N[C@H](C(=O)N[C@@H](Cc1ccccc1)C(=O)N[C@H](CCCCN)C(=O)O)[C@@H](C)O)C(C)C,> 1000
5,CC(C)CC[C@H](NC(=O)[C@H](Cc1c[nH]c2ccccc12)NC(=O)[C@H](Cc1ccc(O)cc1)NC(=O)[C@H](CS)NC(=O)[C@H](CCC(N)=O)NC(=O)[C@H](Cc1c[nH]c2ccccc12)NC(=O)[C@@H](NC(=O)[C@H](CCC(N)=O)NC(=O)[C@@H](N)CS)[C@@H](C)O)C(=O)N[C@@H](CCC(=O)O)C(=O)N[C@@H](CC(N)=O)C(=O)NCC(=O)NCCOCC(=O)N[C@H](CCCCN)C(N)=O,< 500
6,CC(=O)N[C@@H](CS)C(=O)N[C@@H](CCC(N)=O)C(=O)N[C@H](C(=O)N[C@@H](Cc1c[nH]c2ccccc12)C(=O)N[C@@H](CCC(N)=O)C(=O)N[C@@H](CS)C(=O)N[C@@H](Cc1ccc(O)cc1)C(=O)N[C@H](CC(=O)N[C@@H](CCCNC(=N)N)C(=O)N[C@H](C(=O)N[C@@H](CC(N)=O)C(=O)NCC(=O)NCCOCC(=O)N[C@H](CCCCN)C(N)=O)C(C)C)Cc1ccccc1)[C@@H](C)O,> 30000
7,COc1ccc(C[C@H](NC(=O)[C@@H](NC(=O)[C@H](CCC(N)=O)NC(=O)[C@H](Cc2c[nH]c3ccccc23)NC(=O)[C@@H](NC(=O)[C@H](CCC(N)=O)NC(=O)[C@@H](NC(C)=O)C(C)(C)S)[C@@H](C)O)C(C)(C)S)C(=O)N[C@@H](Cc2ccc3ccccc3c2)C(=O)N[C@@](C)(CCCCN)C(=O)N[C@@H](CCCCNC(CC(C)C)=C2C(=O)CC(C)(C)CC2=O)C(=O)N[C@@H](CC(N)=O)C(=O)NCC(N)=O)cc1,100 to 1000
8,CC(C)[C@H](NC(=O)[C@H](Cc1cnc[nH]1)NC(=O)[C@H](Cc1c[nH]c2ccccc12)NC(=O)[C@H](Cc1ccc(O)cc1)NC(=O)[C@H](CS)NC(=O)[C@H](CCCNC(=N)N)NC(=O)[C@H](Cc1c[nH]c2ccccc12)NC(=O)[C@H](CC(=O)O)NC(=O)[C@H](CO)NC(=O)[C@@H](N)CS)C(=O)N[C@@H](Cc1ccccc1)C(=O)NCC(N)=O (H-CSDWRCYWHVFG-NH2),> 1000
9,CC(=O)N[C@@H](CS)C(=O)N[C@@H](C)C(=O)N[C@@H](CC(=O)O)C(=O)N[C@@H](Cc1c[nH]c2ccccc12)C(=O)N[C@H](C(=O)N[C@@H](CS)C(=O)N[C@@H](Cc1ccc(O)cc1)C(=O)N[C@@H](Cc1ccc(-c2ccccc2)cc1)C(=O)N[C@@H](CCCN)C(=O)N[C@@H](CN)C(=O)N[C@@H](Cc1ccccc1)C(=O)NCC(=O)NCCOCC(=O)N[C@H](CCCCN)C(N)=O)C(C)C,> 30000
10,CC(=O)N[C@@H](CS)C(=O)N[C@@H](CCC(N)=O)C(=O)N[C@H](C(=O)N[C@@H](Cc1c[nH]c2ccccc12)C(=O)N[C@@H](CCC(N)=O)C(=O)N[C@@H](CS)C(=O)N[C@@H](Cc1ccc(O)cc1)C(=O)N[C@@H](Cc1c[nH]c2ccccc12)C(=O)N1CCC[C@@H]1C(=O)N[C@@H](CCC(=O)O)C(=O)N[C@@H](CC(N)=O)C(=O)NCC(N)=O)[C@@H](C)O,> 30000
11,CC(=O)N[C@@H](CS)C(=O)N[C@@H](CCC(=O)O)C(=O)N[C@@H](CC(=O)O)C(=O)N[C@@H](Cc1c[nH]c2ccccc12)C(=O)N[C@@H](CCCCN)C(=O)N[C@@H](CS)C(=O)N[C@@H](Cc1ccc(O)cc1)C(=O)N[C@@H](Cc1c[nH]c2ccccc12)C(=O)N[C@@H](Cc1cnc[nH]1)C(=O)N[C@@H](CCCCN)C(=O)N[C@@H](Cc1ccc(O)cc1)C(=O)NCC(N)=O (Ac-CEDWKCYWHKYG-NH2),< 500
12,CC(=O)N[C@@H](CS)C(=O)N[C@@H](C)C(=O)N[C@@H](CC(=O)O)C(=O)N[C@@H](Cc1c[nH]c2ccccc12)C(=O)N[C@H](C(=O)N[C@@H](CS)C(=O)N[C@@H](Cc1ccc(O)cc1)C(=O)N[C@@H](Cc1c[nH]c2ccccc12)C(=O)N[C@@H](Cc1cnc[nH]1)C(=O)N[C@@H](CCCCNC(=O)COCC(=O)NCCCC[C@H](NC(=O)[C@H](Cc1cnc[nH]1)NC(=O)[C@H](Cc1c[nH]c2ccccc12)NC(=O)[C@H](Cc1ccc(O)cc1)NC(=O)[C@H](CS)NC(=O)[C@@H](NC(=O)[C@H](Cc1c[nH]c2ccccc12)NC(=O)[C@H](CC(=O)O)NC(=O)[C@H](C)NC(=O)[C@H](CS)NC(C)=O)C(C)C)C(=O)N[C@@H](Cc1ccccc1)C(=O)NCC(=O)O)C(=O)N[C@@H](Cc1ccccc1)C(=O)NCC(=O)O)C(C)C,> 10000
13,CC(=O)N[C@@H](C)C(=O)N[C@H](C(=O)N[C@@H](CC(=O)O)C(=O)N[C@@H](Cc1c[nH]c2ccccc12)C(=O)N[C@H](C(=O)N[C@@H](CS)C(=O)N[C@@H](Cc1ccc(O)cc1)C(=O)N[C@@H](Cc1c[nH]c2ccccc12)C(=O)N[C@@H](CCCNC(=N)N)C(=O)N[C@@H](CCCCN)C(=O)N[C@@H](Cc1ccccc1)C(=O)NCC(=O)NCCOCC(=O)N[C@H](CCCCN)C(N)=O)C(C)C)C(C)(C)S,100 to 1000
14,CC(=O)N[C@@H](CS)C(=O)N[C@@H](CCCNC(=N)N)C(=O)N[C@@H](CC(=O)O)C(=O)N[C@@H](Cc1c[nH]c2ccccc12)C(=O)N[C@H](C(=O)N[C@@H](CS)C(=O)N[C@@H](Cc1ccc(O)cc1)C(=O)N[C@@H](Cc1c[nH]c2ccccc12)C(=O)N[C@@H](Cc1cnc[nH]1)C(=O)N[C@H](C(=O)N[C@@H](Cc1ccccc1)C(=O)NCC(N)=O)[C@@H](C)O)C(C)C,500 to 1000
15,CC(=O)NC1CC/C=C\CCC(C(=O)N[C@@H](Cc2ccc(O)cc2)C(=O)N[C@@H](Cc2c[nH]c3ccccc23)C(=O)N[C@@H](CCCNC(=N)N)C(=O)N[C@@H](CCCCN)C(=O)N[C@@H](Cc2ccccc2)C(=O)NCC(=O)NCCOCC(=O)N[C@H](CCCCN)C(N)=O)NC(=O)[C@H](CCC(N)=O)NC(=O)[C@H](Cc2c[nH]c3ccccc23)NC(=O)[C@H]([C@@H](C)O)NC(=O)[C@H](CCCNC(=N)N)NC1=O (stereo not given in full),100 to 1000
16,Ac-QTWQCYWRK(Ac)NG-NH2,< 500
17,CC(=O)N[C@@H](CS)C(=O)N[C@@H](CCC(N)=O)C(=O)N[C@H](C(=O)N[C@@H](Cc1c[nH]c2ccccc12)C(=O)N[C@@H](CCC(N)=O)C(=O)N[C@@H](CS)C(=O)N[C@@H](Cc1ccc(O)cc1)C(=O)N[C@@H](Cc1c[nH]c2ccccc12)C(=O)N[C@@H](CCONC(=N)N)C(=O)N[C@@H](CCC(=O)O)C(=O)N[C@@H](CC(N)=O)C(=O)NCC(=O)NCCOCC(=O)N[C@H](CCCCN)C(N)=O)[C@@H](C)O,< 500
18,CC(=O)N[C@H](C(=O)N[C@@H](CCC(N)=O)C(=O)N[C@H](C(=O)N[C@@H](Cc1c[nH]c2ccccc12)C(=O)N[C@@H](CCC(N)=O)C(=O)N[C@H](C(=O)N[C@@H](Cc1ccc(C#N)cc1)C(=O)N[C@@H](Cc1ccc2ccccc2c1)C(=O)N[C@@](C)(CCCN)C(=O)N[C@@H](CCC(=O)O)C(=O)N[C@@H](CC(N)=O)C(=O)NCC(N)=O)C(C)(C)S)[C@@H](C)O)C(C)(C)S,100 to 1000
19,CC(=O)N[C@@H](CS)C(=O)N[C@@H](CCC(N)=O)C(=O)N[C@H](C(=O)N[C@@H](Cc1c[nH]c2ccccc12)C(=O)N[C@@H](CCC(=O)O)C(=O)N[C@@H](CS)C(=O)N[C@@H](Cc1ccc(O)cc1)C(=O)N[C@@H](Cc1c[nH]c2ccccc12)C(=O)N[C@@H](Cc1cnc[nH]1)C(=O)N[C@@H](CC(C)C)C(=O)N[C@@H](Cc1ccc(O)cc1)C(=O)NCC(N)=O)[C@@H](C)O (Ac-CQTWECYWHLYG-NH2),< 500
20,CC(=O)N[C@H](CCCCN)C(=O)NCCC(=O)N[C@@H](CS)C(=O)N[C@@H](C)C(=O)N[C@@H](CC(=O)O)C(=O)N[C@@H](Cc1c[nH]c2ccccc12)C(=O)N[C@H](C(=O)N[C@@H](CS)C(=O)N[C@@H](Cc1ccc(O)cc1)C(=O)N[C@@H](Cc1c[nH]c2ccccc12)C(=O)N[C@@H](Cc1cnc[nH]1)C(=O)N[C@H](C(=O)N[C@@H](Cc1ccccc1)C(=O)NCC(=O)O)[C@@H](C)O)C(C)C,> 1000
